From US20080226624A1, “Combined treatment of cancer by urokinase inhibition and a cytostatic anti-cancer agent for enhancing the anti-metastatic effect” (priority 2007, published 2008)

Key:
[1] = biological target: uPA (Homo sapiens, UniProt P00749); details: L-confirmation; cited from earlier work
[2] = biological target: plasmin (Homo sapiens, UniProt P00747); details: L-confirmation; cited from earlier work
[3] = tested on: tumor cell invasion; details: cited from earlier work
[4] = tested on: BN472 rat mammary tumors
Method: Small tumor cubes (2×2×2 mm) were prepared from a tumor grown in a donor rat and implanted orthotopically under the fat pad of the mammary gland.
The effects of treatments on body weight and tumor load were evaluated twice weekly. The final evaluation was done at the end of the therapy period after all rats had been sacrificed. Graphical evaluations of the endpoints considered, i.e., tumor size and weight, axillary lymph-node weights, the number of macroscopic lung foci, and the weights of the thymus, uterus, spleen and liver, are depicted in FIGS. 3, 3a, 3b, 3c, 3d and 3e.

[5] = irinotecan mono-therapy, both doses (2 and 6 mg/kg daily i.p.)

Sequence of plasmin (P00747 581-810 limits assumed, species assumed): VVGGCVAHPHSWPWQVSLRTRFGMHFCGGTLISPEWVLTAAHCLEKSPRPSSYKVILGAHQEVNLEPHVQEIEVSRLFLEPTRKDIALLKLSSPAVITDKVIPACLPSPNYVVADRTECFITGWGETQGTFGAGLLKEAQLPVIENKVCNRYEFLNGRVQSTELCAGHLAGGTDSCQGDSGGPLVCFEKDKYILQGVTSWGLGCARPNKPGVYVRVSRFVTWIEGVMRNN
Sequence of plasmin (P00747 97-580 partner limits assumed, species assumed): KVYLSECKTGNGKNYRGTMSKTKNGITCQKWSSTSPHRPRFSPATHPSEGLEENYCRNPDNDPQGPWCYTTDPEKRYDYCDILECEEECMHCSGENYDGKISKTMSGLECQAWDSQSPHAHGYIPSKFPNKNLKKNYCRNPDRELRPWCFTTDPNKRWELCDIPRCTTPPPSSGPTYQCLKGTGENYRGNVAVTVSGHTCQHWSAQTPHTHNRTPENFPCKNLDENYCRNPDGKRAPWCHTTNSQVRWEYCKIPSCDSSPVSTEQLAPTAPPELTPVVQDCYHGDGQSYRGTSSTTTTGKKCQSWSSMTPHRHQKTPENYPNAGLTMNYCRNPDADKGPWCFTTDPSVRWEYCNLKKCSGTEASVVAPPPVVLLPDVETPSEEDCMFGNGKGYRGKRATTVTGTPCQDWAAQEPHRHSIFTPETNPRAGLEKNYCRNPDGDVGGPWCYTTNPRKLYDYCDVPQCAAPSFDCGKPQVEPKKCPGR

Structure (SMILES)	Ki values, inhibition of uPA [1]	Ki values, inhibition of plasmin [2]	tumor cell invasion in vitro [3]	tolerability (daily observations during the treatment period) ([4]; WX-671 0.3 mg/kg daily p.o., irinotecan 2 or 6 mg/kg daily i.p.)	axillary lymph-nodes weight [4, 5]	number of lung foci [4, 5]	tumor growth ([4]; irinotecan mono-therapy, daily i.p.)
CCOC(=O)N1CCN(C(=O)[C@H](Cc2cccc(C(=N)N)c2)NS(=O)(=O)c2c(C(C)C)cc(C(C)C)cc2C(C)C)CC1 [WX-UK1, N[alpha]-(2,4,6-triisopropylphenylsulfonyl)-3-amidino-(L)-phenylalanine 4-ethoxycarbonylpiperazide]	low- or sub-micromoles range	low- or sub-micromoles range	suppress tumor cell invasion in vitro				
CCc1c2c(nc3ccc(OC(=O)N4CCC(N5CCCCC5)CC4)cc13)-c1cc3c(c(=O)n1C2)COC(=O)[C@]3(O)CC [irinotecan]				generally well tolerated	significantly inhibited	significantly inhibited	inhibition of tumor growth
